Test results published in PMC4774911, “Biochemical Screening of Five Protein Kinases from Plasmodium falciparum against 14,000 Cell-Active Compounds” (PLoS ONE, 2016).
“And” between values parts separate entries of the source, which are not always exact repeats. Identical values can stand only once.

Columns and labels:
Assay in all cases: biochemical
BRAF = BRAF (Homo sapiens, UniProt P15056)
MAP3K6 = target: T1, MAP3K6 (Homo sapiens, UniProt O95382)
T1 sequence (O95382 1-1288): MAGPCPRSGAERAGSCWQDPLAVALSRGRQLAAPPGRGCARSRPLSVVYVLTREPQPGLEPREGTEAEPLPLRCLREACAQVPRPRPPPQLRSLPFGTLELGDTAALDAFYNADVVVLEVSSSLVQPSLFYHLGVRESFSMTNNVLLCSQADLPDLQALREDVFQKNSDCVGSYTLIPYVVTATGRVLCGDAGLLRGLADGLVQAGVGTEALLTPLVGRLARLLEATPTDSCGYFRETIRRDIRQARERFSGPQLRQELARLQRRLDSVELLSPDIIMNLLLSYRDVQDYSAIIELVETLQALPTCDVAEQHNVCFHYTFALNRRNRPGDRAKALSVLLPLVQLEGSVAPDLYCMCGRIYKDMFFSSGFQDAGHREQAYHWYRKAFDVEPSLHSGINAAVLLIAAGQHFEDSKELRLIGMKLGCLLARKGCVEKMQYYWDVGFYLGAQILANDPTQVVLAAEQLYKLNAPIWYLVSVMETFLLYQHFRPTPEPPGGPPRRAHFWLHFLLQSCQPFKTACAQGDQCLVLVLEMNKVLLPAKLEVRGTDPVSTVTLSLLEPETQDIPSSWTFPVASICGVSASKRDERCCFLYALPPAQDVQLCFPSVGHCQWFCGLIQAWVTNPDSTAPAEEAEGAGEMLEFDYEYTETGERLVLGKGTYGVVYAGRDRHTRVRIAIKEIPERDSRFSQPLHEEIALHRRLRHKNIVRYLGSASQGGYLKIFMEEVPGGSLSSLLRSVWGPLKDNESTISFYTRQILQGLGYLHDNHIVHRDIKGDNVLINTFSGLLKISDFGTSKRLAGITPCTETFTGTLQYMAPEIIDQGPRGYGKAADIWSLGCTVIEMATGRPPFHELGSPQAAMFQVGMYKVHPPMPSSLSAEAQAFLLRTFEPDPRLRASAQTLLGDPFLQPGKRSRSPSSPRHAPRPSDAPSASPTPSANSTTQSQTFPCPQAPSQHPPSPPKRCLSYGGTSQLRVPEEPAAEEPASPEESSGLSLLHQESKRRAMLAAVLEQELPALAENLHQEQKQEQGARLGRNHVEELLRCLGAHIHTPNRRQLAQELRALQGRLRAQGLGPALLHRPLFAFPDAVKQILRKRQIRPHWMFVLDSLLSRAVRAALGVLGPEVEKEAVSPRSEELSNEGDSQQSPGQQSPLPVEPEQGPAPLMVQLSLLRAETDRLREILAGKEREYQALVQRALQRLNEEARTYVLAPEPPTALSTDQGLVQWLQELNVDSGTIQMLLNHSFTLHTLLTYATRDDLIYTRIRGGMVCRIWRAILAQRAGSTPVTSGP

MAP4K2 = target: T2, MAP4K2 (Homo sapiens, UniProt Q12851)
T2 sequence (Q12851 1-820): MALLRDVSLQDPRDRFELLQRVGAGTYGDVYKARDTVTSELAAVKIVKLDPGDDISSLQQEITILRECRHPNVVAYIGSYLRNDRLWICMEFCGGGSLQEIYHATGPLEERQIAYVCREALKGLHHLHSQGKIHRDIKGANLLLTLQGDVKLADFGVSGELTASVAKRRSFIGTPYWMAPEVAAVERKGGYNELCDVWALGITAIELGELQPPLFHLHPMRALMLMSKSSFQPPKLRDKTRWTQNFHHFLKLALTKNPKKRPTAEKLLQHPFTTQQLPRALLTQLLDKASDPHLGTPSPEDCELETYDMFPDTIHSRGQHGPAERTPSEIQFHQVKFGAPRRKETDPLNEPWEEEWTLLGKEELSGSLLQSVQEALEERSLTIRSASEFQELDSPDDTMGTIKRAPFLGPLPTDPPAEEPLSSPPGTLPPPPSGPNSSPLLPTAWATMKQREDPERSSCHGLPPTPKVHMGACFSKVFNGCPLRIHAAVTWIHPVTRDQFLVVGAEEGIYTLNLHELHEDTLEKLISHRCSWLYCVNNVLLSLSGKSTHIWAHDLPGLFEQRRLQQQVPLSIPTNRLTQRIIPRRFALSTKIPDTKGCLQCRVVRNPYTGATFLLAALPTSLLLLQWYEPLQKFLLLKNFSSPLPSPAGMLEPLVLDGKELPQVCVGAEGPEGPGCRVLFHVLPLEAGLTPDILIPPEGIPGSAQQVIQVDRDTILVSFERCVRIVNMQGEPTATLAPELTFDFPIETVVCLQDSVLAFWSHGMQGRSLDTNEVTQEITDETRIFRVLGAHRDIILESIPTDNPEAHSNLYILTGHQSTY

PHKG2 = target: T3, PHKG2 (Homo sapiens, UniProt P15735)
T3 sequence (P15735 1-406): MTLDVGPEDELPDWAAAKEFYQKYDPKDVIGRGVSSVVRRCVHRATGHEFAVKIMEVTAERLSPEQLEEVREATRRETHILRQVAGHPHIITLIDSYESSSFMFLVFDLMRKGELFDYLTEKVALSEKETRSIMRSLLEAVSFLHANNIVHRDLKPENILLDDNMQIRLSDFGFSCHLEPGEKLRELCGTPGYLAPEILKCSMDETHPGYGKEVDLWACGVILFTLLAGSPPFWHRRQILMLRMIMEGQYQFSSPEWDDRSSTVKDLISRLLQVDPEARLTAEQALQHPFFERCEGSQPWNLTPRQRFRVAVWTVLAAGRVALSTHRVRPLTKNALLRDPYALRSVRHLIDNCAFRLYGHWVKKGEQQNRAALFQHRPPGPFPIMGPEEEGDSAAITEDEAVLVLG

STK39 = STK39 (Homo sapiens, UniProt Q9UEW8)

BRAF, sequence (P15056 whole entry): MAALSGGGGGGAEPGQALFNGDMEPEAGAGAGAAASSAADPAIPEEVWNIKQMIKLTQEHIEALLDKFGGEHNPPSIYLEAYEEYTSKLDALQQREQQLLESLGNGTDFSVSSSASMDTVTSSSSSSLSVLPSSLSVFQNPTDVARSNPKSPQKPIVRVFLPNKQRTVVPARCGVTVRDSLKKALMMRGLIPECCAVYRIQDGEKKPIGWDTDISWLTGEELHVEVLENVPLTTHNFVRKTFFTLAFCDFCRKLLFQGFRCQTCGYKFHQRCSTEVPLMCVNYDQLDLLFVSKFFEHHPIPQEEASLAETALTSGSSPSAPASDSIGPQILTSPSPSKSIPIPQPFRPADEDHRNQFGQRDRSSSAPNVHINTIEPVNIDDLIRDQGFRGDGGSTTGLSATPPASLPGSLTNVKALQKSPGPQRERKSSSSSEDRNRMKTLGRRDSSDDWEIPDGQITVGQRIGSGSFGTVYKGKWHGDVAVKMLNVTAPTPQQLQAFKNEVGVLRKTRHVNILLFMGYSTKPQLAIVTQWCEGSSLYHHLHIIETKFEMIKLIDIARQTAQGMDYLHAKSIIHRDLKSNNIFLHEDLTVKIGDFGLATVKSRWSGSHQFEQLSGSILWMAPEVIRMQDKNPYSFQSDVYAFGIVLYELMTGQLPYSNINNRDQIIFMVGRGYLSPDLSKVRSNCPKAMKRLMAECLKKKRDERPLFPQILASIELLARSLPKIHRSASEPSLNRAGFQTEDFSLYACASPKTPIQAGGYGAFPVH

CN1CCN(c2ccc(Nc3ncc(C#N)c(Nc4ccccc4C(N)=O)n3)cc2)CC1.Cl [TCMDC-134116]
IC50 (BRAF): 2 µM
IC50 (MAP3K6): 1.6 µM and 1.4 µM
IC50 (MAP4K2): 1 µM
IC50 (PHKG2): 2.8 µM
IC50 (STK39): 0.067 µM

Cl.NCC1(c2nc(-c3ccc(Cl)c(O)c3)c(-c3ccncc3)[nH]2)CCCCC1 [TCMDC-141154]
IC50 (BRAF): 1.1 µM and 0.9 µM
IC50 (MAP3K6): > 20 µM
IC50 (MAP4K2): > 20 µM
IC50 (PHKG2): > 20 µM
IC50 (STK39): > 20 µM

CN(C)CC(O)COc1ccc(Nc2ncc([N+](=O)[O-])c(Nc3ccccc3O)n2)cc1.O=C(O)C(F)(F)F (stereo not drawn) [TCMDC-141399]
IC50 (BRAF): > 20 µM
IC50 (MAP3K6): > 20 µM
IC50 (MAP4K2): > 20 µM
IC50 (PHKG2): > 20 µM
IC50 (STK39): 5.5 µM
